Experimental data published in patent publication US10280163B2 (BeiGene, Ltd., priority 2015, dated 2019).
pEC50, pIC50: −log10 of the molar value. Read-outs that look alike come from different tables or passages of the source.

Legend:
[1] = molecular target: T1, Recombinant IDO1 (Homo sapiens, UniProt P14902); experiment: IDO1 enzymatic assay; assay type: biochemical; settings: for IC50: 50 nM IDO1, 1.3 mM D-tryptophan, read-out: Enzyme IC50 (nM) IDO1; for pIC50: selectivity examples, read-out: enzymatic IC50 value to IDO1
T1 construct: His tag (N); made in house; host or cells: E. coli
T1 sequence (P14902 whole entry): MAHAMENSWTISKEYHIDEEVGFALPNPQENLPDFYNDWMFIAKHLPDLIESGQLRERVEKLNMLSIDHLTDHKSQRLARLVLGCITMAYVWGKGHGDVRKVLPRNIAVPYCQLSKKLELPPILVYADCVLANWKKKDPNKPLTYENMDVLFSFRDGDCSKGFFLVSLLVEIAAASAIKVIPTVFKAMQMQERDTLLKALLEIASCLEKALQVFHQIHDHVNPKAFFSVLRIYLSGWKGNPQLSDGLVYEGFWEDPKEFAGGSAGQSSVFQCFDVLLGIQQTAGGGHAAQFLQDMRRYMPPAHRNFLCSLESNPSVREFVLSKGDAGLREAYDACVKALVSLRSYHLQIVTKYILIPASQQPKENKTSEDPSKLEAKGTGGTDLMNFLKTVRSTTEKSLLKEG
In short: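 N-terminally His-tagged enzyme from E. coli (50 nM) was incubated with compound, 1.3 mM D-tryptophan, 5 mM ascorbate, 6.25 μM methylene blue and 0.4 mg/mL catalase in 50 mM potassium phosphate pH 7.5, 0.1% BSA for 1.5 h at 24° C. N′-formylkynurenine formation was followed at 321 nm for 1 h; IC50 from rate slopes.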

[2] = molecular target: T2, Recombinant TDO (Homo sapiens, UniProt P48775); experiment: TDO enzymatic assay; assay type: biochemical; settings: for IC50: 100 nM TDO, 0.5 mM L-tryptophan, read-out: Enzyme IC50 (nM) TDO; for pIC50: selectivity examples, read-out: enzymatic IC50 value to TDO
T2 construct: His tag (C); made in house; host or cells: E. coli
T2 sequence (P48775 whole entry): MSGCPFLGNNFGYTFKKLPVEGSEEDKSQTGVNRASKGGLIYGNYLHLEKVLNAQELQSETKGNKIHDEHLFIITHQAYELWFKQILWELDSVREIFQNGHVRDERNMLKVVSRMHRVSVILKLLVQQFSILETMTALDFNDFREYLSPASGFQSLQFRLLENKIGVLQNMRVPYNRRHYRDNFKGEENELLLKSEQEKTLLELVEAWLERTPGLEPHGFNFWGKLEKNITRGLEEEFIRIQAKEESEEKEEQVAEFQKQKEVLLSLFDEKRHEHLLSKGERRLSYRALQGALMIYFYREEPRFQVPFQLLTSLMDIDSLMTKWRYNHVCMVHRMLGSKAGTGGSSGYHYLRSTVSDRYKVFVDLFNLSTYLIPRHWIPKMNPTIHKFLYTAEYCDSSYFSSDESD
Experimental: Recombinant TDO was overexpressed and purified from E. coli cells with a C-terminal His tag. TDO enzymatic assay was performed using the same methodology as IDO1 enzymatic assay except that 100 nM TDO and 0.5 mM L-tryptophan (Km concentration) were used in the TDO assay.

[3] = molecular target: T3, cellular IDO1 in HeLa cells (Homo sapiens, UniProt P14902); experiment: HeLa cell-based IDO1 Kyn (kynurenine) production assay; settings: IFN-γ 100 ng/mL, 48 hours
T3 construct: endogenous in cells; host or cells: HeLa cells (American Type Tissue Culture Collection), induced with human recombinant IFN-γ
T3 sequence (P14902 whole entry): as the sequence (P14902 whole entry) above
In short: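 IFN-γ-induced HeLa cells (100 ng/mL) in phenol red-free DMEM with 0.4 mM L-Trp, compounds added together with IFN-γ, 48 h at 37 °C. Supernatant Kyn read at 480 nm after TCA precipitation and 4-(dimethylamino)benzaldehyde reaction. IC50 from four-parameter logistic fit.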

[4] = Table 1, 5-substituted imidazo[1,5-a]pyridines
[5] = Table 2, 8-substituted imidazo[1,5-a]pyridines

| Structure (SMILES) | IC50 [1, 4] [nM] | IC50 [2, 4] [nM] | pEC50 [3, 4] | pIC50 [1] | pIC50 [2] | pEC50 [3, 5] | IC50 [1, 5] [nM] | IC50 [2, 5] [nM] |
| --- | --- | --- | --- | --- | --- | --- | --- | --- |
| OC(c1c(I)ccc2cncn12)C1CCCCC1 (single isomer, unassigned) [Example A125a] | 15 | 4500 | 6.86 |  |  |  |  |  |
| OC(c1c(C(F)(F)F)ccc2cncn12)C1CCCC1 (stereo not drawn) [Example A133, cyclopentyl(6-(trifluoromethyl)imidazo[1,5-a]pyridin-5-yl)methanol] | 58 | 36000 | 5.69 |  |  |  |  |  |
| OC(c1c(Cl)ccc2cncn12)C1CCCCC1 (stereo not drawn) [Example A116, (6-chloroimidazo[1,5-a]pyridin-5-yl)(cyclohexyl)methanol] | 7.5 | 270 | 6.64 |  |  |  |  |  |
| OC(c1c(Br)ccc2cncn12)C1CCCC1 (stereo not drawn) [Example A120, (6-bromoimidazo[1,5-a]pyridin-5-yl)(cyclopentyl)methanol] | 37 | 3700 | 5.85 |  |  |  |  |  |
| OC(CC1CCCCC1)c1cc(Cl)cc2cncn12 (single isomer, unassigned) [Example A102a] | 15 | 73 | 6.46 |  |  |  |  |  |
| COc1cc(C(O)C2CCCCC2)n2cncc2c1Cl (stereo not drawn) [Example A153, (8-chloro-7-methoxyimidazo[1,5-a]pyridin-5-yl)(cyclohexyl)methanol] | 500 | 1800 | 5.17 |  |  |  |  |  |
| OC(CC1CCCCC1)c1c(C(F)(F)F)ccc2cncn12 (single isomer, unassigned) [Example A127b] | 3200 | 25000 | 5.10 |  |  |  |  |  |
| OC(c1cc(C(F)(F)F)cc2cncn12)C1CCCCCC1 (stereo not drawn) [Example A115, cycloheptyl(7-(trifluoromethyl)imidazo[1,5-a]pyridin-5-yl)methanol] | 180 | 320 | 5.50 |  |  |  |  |  |
| O=C(NC1CCCC(C(O)c2cc(Cl)cc3cncn23)C1)c1cccc(Cl)c1 (stereo not drawn) [Example A105, 3-chloro-N-(3-((7-chloroimidazo[1,5-a]pyridin-5-yl)(hydroxy)methyl)cyclohexyl)benzamide] | 127 | 1600 | 5.77 |  |  |  |  |  |
| OC(c1c(C2CC2)ccc2cncn12)C1CCCCC1 (single isomer, unassigned) [Example A126a] | 36 | 14000 | 6.81 |  |  |  |  |  |
| OC(CC1CCCCC1)c1c(Cl)ccn2cncc12 (stereo not drawn) [Example B105, 1-(7-chloroimidazo[1,5-a]pyridin-8-yl)-2-cyclohexylethan-1-ol] |  |  |  | 7.48 | 5.31 | 6.06 |  |  |
| OC(c1cc(Cl)c(Cl)c2cncn12)C1CCCCC1 (stereo not drawn) [Example A146, cyclohexyl(7,8-dichloroimidazo[1,5-a]pyridin-5-yl)methanol] | 28 | 210 | 5.90 |  |  |  |  |  |
| OC(c1c(Cl)c(Br)cc2cncn12)C1CCCCC1 (stereo not drawn) [Example A148, (7-bromo-6-chloroimidazo[1,5-a]pyridin-5-yl)(cyclohexyl)methanol] | 39 | 420 | 5.83 |  |  |  |  |  |
| OC(c1c(C2CC2)ccc2cncn12)C1CCCCC1 (stereo not drawn) [Example A129, cyclohexyl(6-cyclopropylimidazo[1,5-a]pyridin-5-yl)methanol] | 30 | 4700 | 7.16 |  |  |  |  |  |
| OC(CCC1CCCCC1)c1cc(Cl)cc2cncn12 (stereo not drawn) [Example A113, 1-(7-chloroimidazo[1,5-a]pyridin-5-yl)-3-cyclohexylpropan-1-ol] | 26 | 1100 | 5.49 |  |  |  |  |  |
| OC(c1c(I)ccc2cncn12)C1CCCCC1 (stereo not drawn) [Example A125, cyclohexyl(6-iodoimidazo[1,5-a]pyridin-5-yl)methanol] | 31 | 5600 | 6.69 |  |  |  |  |  |
| Cc1ccc2cncn2c1C(O)C1CCCCC1 (stereo not drawn) [Example A122, cyclohexyl(6-methylimidazo[1,5-a]pyridin-5-yl)methanol] | 28 | 430 | 6.57 |  |  |  |  |  |

| Structure (SMILES) | IC50 [1, 4] [nM] | IC50 [2, 4] [nM] | pEC50 [3, 4] | pIC50 [1] | pIC50 [2] | pEC50 [3, 5] | IC50 [1, 5] [nM] | IC50 [2, 5] [nM] |
| --- | --- | --- | --- | --- | --- | --- | --- | --- |
| OC(c1c(Br)ccc2cncn12)C1CCCCC1 (single isomer, unassigned) [Example A118a] | 14 | 1700 | 6.46 |  |  |  |  |  |
| OC(c1c(-c2ccccc2)ccc2cncn12)C1CCCCC1 (stereo not drawn) [Example A130, cyclohexyl(6-phenylimidazo[1,5-a]pyridin-5-yl)methanol] | 850 | 1700 | 5.04 |  |  |  |  |  |
| Cc1cc(C(O)CC2CCCCC2)c2cncn2c1 (stereo not drawn) [Example B012, 2-Cyclohexyl-1-(6-methylimidazo[1,5-a]pyridin-8-yl)ethanol] |  |  |  |  |  | < 5.00 | 130 | 130 |
| O[C@@H](c1c(C2CC2)ccn2cncc12)C1CCCCC1 (single isomer, unassigned) [Example B107b] |  |  |  |  |  | < 5.00 | 21000 | 11000 |
| OC(CC1CCCCC1)c1c(Cl)ccc2cncn12 (stereo not drawn) [Example A117, 1-(6-chloroimidazo[1,5-a]pyridin-5-yl)-2-cyclohexylethan-1-ol] |  |  | 6.84 | 7.55 | 5.01 |  |  |  |
| OC(CC1CCCCC1)c1c(Cl)c(Cl)cc2cncn12 (stereo not drawn) [Example A144, 2-cyclohexyl-1-(6,7-dichloroimidazo[1,5-a]pyridin-5-yl)ethan-1-ol] | 32 | 1500 | 5.91 |  |  |  |  |  |
| OC(CC1CCCCC1)c1c(Cl)c(Cl)cc2cncn12 (single isomer, unassigned) [Example A144a] | > 100000 | 23000 | < 5.00 |  |  |  |  |  |
| OC(CC1CCCCC1)c1c(Cl)c(F)cc2cncn12 (stereo not drawn) [Example A152, 1-(6-chloro-7-fluoroimidazo[1,5-a]pyridin-5-yl)-2-cyclohexylethan-1-ol] | 33 | 7400 | 6.69 |  |  |  |  |  |
| CC(C)c1ccn2cncc2c1C(O)C1CCCCC1 (stereo not drawn) [Example B106, Cyclohexyl (7-isopropylimidazo[1,5-a]pyridin-8-yl)methanol] |  |  |  |  |  | 6.34 | 138 | 1200 |
| OC(c1cc(C2CC2)cc2cncn12)C1CCCCC1 (stereo not drawn) [Example A108, cyclohexyl(7-cyclopropylimidazo[1,5-a]pyridin-5-yl)methanol 2,2,2-trifluoroacetate] | 36 | 150 | 5.35 |  |  |  |  |  |
| OC(c1c(C2CC2)ccc2cncn12)C1CCCC1 (stereo not drawn) [Example A138, cyclopentyl(6-cyclopropylimidazo[1,5-a]pyridin-5-yl)methanol] | 25 | 6600 | 6.38 |  |  |  |  |  |
| OC(c1c(Cl)ccn2cncc12)C1CCCCC1 (stereo not drawn) [Example B104, (7-chloroimidazo[1,5-a]pyridin-8-yl)(cyclohexyl)methanol] |  |  |  |  |  | 5.53 | 38 | 940 |
| OC(CC1CCCCC1)c1c(C2CC2)ccn2cncc12 (stereo not drawn) [Example B110] |  |  |  |  |  | 6.59 | 53 | 1000 |
| OC(CCC1CCCCC1)c1c(Cl)ccc2cncn12 (stereo not drawn) [Example A128, 1-(6-chloroimidazo[1,5-a]pyridin-5-yl)-3-cyclohexylpropan-1-ol] | 46 | 1100 | 5.66 |  |  |  |  |  |
| OC(CC1CCCCC1)c1cc(C(F)(F)F)cc2cncn12 (single isomer, unassigned) [Example A114b] | 74 | 170 | 5.26 |  |  |  |  |  |
| OC(c1ccc(F)c2cncn12)C1CCCCC1 (stereo not drawn) [Example A022, cyclohexyl(8-fluoroimidazo[1,5-a]pyridin-5-yl)methanol] | 1200 | 570 | < 5.00 |  |  |  |  |  |
